From US20150231199A1, “PEPTIDES AND THEIR USES” (priority 2012, published 2015)
≈ marks a conversion by molar mass, not a printed value. Like-named read-outs stand apart in the source and are kept apart here. Positions of bridges follow the written chain, without caps; N, C: chain ends. Residues, ends and D or L forms follow the SMILES beside them. Chains are numbered I, II in the order given. *: point of attachment. Lauroyl = CCCCCCCCCCCC(=O)*; Decanoyl = CCCCCCCCCC(=O)*; Octanoyl = CCCCCCCC(=O)*; Hexanoyl = CCCCCC(=O)*; Butyryl = CCCC(=O)*

Legend:
[1] = test system: Methicillin-resistant Staphylococcus aureus (MRSA); assay type: cell-based
Description: (§1) V2-dimer and all lipopeptides (FIG. 1A) used in this study were purchased from Mimotopes. All peptides were prepared by dissolving in sterile water to make 1000 μg/mL stock solutions. Minimum Inhibitory Concentration (MIC) determination was carried out in Mueller Hinton Broth (MHB) using the broth macro-dilution method as described by the Clinical and Laboratory Standards Institute (CLSI). Then, cation-adjusted MHB (CA-MHB) was used to prepare serial two fold dilutions of the compounds in test tubes. The concentration of the inoculums suspension was also adjusted to approximately 5×10^5 Colony Forming Units (CFU)/mL using MHB. Bacteria were incubated with the compounds for 24 hours at 35° C. prior to reading. In this study, Gram-positive strains used were Staphylococcus aureus DM4001 and Methicillin-resistant Staphylococcus aureus (MRSA) DM9808. Gram-negative strains used were Klebsiella pneumoniae DM4299, Pseudomonas aeruginosa ATCC23155 and Escherichia coli ATCC27922.
(§2) Methods used are as described in Example 1 above.

[2] = test system: Pseudomonas aeruginosa; assay type: cell-based
Description: as §1, §2

[3] = test system: Staphylococcus aureus; assay type: cell-based
Description: as §1, §2

[4] = test system: Klebsiella pneumoniae DM4299; assay type: cell-based
Description: as §1

[5] = test system: Escherichia coli ATCC27922; assay type: cell-based
Description: as §1

[6] = test system: red blood cells (RBCs) of New Zealand white rabbits; test: in vitro; assay type: cell-based, rabbit
Description: Fresh red blood cells (RBCs) of New Zealand white rabbits were used for this experiment. The RBCs obtained were centrifuged at 3000 rpm for 10 min. Supernatant was removed and washed twice with sterile PBS Buffer (20 mM, 100 mM NaCl, pH 7). The RBCs were further diluted to 8% stock solution in PBS. Peptides were dissolved in PBS with desired stock concentrations. When compounds were mixed with RBCs, desired concentration of 4% RBCs was obtained. For C14V2D and C16V2D, they were dissolved in Dimethylformamide ([…]; DMF) with desired stock concentrations. When compounds were mixed with RBCs, desired concentration of 4% RBCs and 0.5% DMF was obtained. DMF concentration of <1% was used as it had negligible hemolytic activity on RBCs. The mixtures were added to 1.5 mL centrifuge tubes and incubated at 37° C. for 1 h. After incubation, the blood was centrifuged at 3000 rpm for 3 min at 4° C. 100 μL of the supernatant was transferred into transparent 96-well plate. The absorbance was measured at 576 nm using a microplate reader (TECAN Infinite 200M Pro). 2% Triton X-100 was used as positive control. PBS was used as negative controls. The amount of hemoglobin released was calculated using the following equation: […]

| SMILES | MIC [1] | MIC [2] | MIC [3] | MIC [4] | MIC [5] | HC10 [6] | HC10 ([6]; red cells of rabbit, 1 h) |
| --- | --- | --- | --- | --- | --- | --- | --- |
| CCCCCC(=O)N[C@@H](CCCNC(=N)N)C(=O)NCC(=O)N[C@@H](CCCNC(=N)N)C(=O)N[C@@H](CCCCN)C(=O)NCC(=O)NCC(=O)N[C@@H](CCCNC(=N)N)C(=O)N[C@@H](CCCNC(=N)N)C(=O)NCCCC[C@H](NC(=O)[C@H](CCCNC(=N)N)NC(=O)[C@H](CCCNC(=N)N)NC(=O)CNC(=O)CNC(=O)[C@H](CCCCN)NC(=O)[C@H](CCCNC(=N)N)NC(=O)CNC(=O)[C@H](CCCNC(=N)N)NC(=O)CCCCC)C(=O)N[C@@H](CCCCN)C(=O)O [Peptide C6-G2D, (C5H11—CO—NH—RGRKGGRR)2KK] (I: Hexanoyl-RGRKGGRRKK-OH / II: Hexanoyl-RGRKGGRR; amide I:9-II:C; N-terminus and C-terminus assumed) | 2.70 µM (≈ 6.26 µg/mL) | 5.39 µM (≈ 12.5 µg/mL) | 5.26 µM (≈ 12.2 µg/mL) | 2.70 µM (≈ 6.26 µg/mL) |  |  |  |
| CC(=O)N[C@@H](CCCNC(=N)N)C(=O)NCC(=O)N[C@@H](CCCNC(=N)N)C(=O)N[C@@H](CCCCN)C(=O)NCC(=O)NCC(=O)N[C@@H](CCCNC(=N)N)C(=O)N[C@@H](CCCNC(=N)N)C(=O)NCCCC[C@H](NC(=O)[C@H](CCCNC(=N)N)NC(=O)[C@H](CCCNC(=N)N)NC(=O)CNC(=O)CNC(=O)[C@H](CCCCN)NC(=O)[C@H](CCCNC(=N)N)NC(=O)CNC(=O)[C@H](CCCNC(=N)N)NC(C)=O)C(=O)N[C@@H](CCCCN)C(=O)O [Peptide C2-G2D, (CH3—CO—NH—RGRKGGRR)2KK] (I: Ac-RGRKGGRRKK-OH / II: Ac-RGRKGGRR; amide I:9-II:C; N-terminus and C-terminus assumed) | 5.66 µM (≈ 12.5 µg/mL) | 2.83 µM (≈ 6.24 µg/mL) | 5.52 µM (≈ 12.2 µg/mL) | 5.66 µM (≈ 12.5 µg/mL) |  |  |  |
| CCCC(=O)N[C@@H](CCCNC(=N)N)C(=O)NCC(=O)N[C@@H](CCCNC(=N)N)C(=O)N[C@@H](CCCCN)C(=O)N[C@H](C(=O)N[C@H](C(=O)N[C@@H](CCCNC(=N)N)C(=O)N[C@@H](CCCNC(=N)N)C(=O)NCCCC[C@H](NC(=O)[C@H](CCCNC(=N)N)NC(=O)[C@H](CCCNC(=N)N)NC(=O)[C@@H](NC(=O)[C@@H](NC(=O)[C@H](CCCCN)NC(=O)[C@H](CCCNC(=N)N)NC(=O)CNC(=O)[C@H](CCCNC(=N)N)NC(=O)CCC)C(C)C)C(C)C)C(=O)N[C@@H](CCCCN)C(=O)O)C(C)C)C(C)C [Peptide C4-V2D, (C3H7—CO—NH—RGRKVVRR)2KK] (I: Butyryl-RGRKVVRRKK-OH / II: Butyryl-RGRKVVRR; amide I:9-II:C) | 2.57 µM (≈ 6.25 µg/mL) | 10.28 µM (≈ 25 µg/mL) | 2.57 µM (≈ 6.25 µg/mL) | 5.14 µM (≈ 12.5 µg/mL) | 2.57 µM (≈ 6.25 µg/mL) |  | >2000 µg/mL |
| CCCC(=O)N[C@@H](CCCNC(=N)N)C(=O)NCC(=O)N[C@@H](CCCNC(=N)N)C(=O)N[C@@H](CCCCN)C(=O)NCC(=O)NCC(=O)N[C@@H](CCCNC(=N)N)C(=O)N[C@@H](CCCNC(=N)N)C(=O)NCCCC[C@H](NC(=O)[C@H](CCCNC(=N)N)NC(=O)[C@H](CCCNC(=N)N)NC(=O)CNC(=O)CNC(=O)[C@H](CCCCN)NC(=O)[C@H](CCCNC(=N)N)NC(=O)CNC(=O)[C@H](CCCNC(=N)N)NC(=O)CCC)C(=O)N[C@@H](CCCCN)C(=O)O [Peptide C4-G2D, (C3H7—CO—NH—RGRKGGRR)2KK] (I: Butyryl-RGRKGGRRKK-OH / II: Butyryl-RGRKGGRR; amide I:9-II:C; N-terminus and C-terminus assumed) | 5.52 µM (≈ 12.5 µg/mL) | 2.76 µM (≈ 6.25 µg/mL) | 5.39 µM (≈ 12.2 µg/mL) | 5.52 µM (≈ 12.5 µg/mL) |  |  |  |

The remaining lines, values ahead:

| MIC [1] | MIC [2] | MIC [3] | MIC [4] | MIC [5] | HC10 [6] | HC10 ([6]; red cells of rabbit, 1 h) | SMILES |
| --- | --- | --- | --- | --- | --- | --- | --- |
| 2.57 µM (≈ 6.25 µg/mL) | 2.57 µM (≈ 6.25 µg/mL) | 2.51 µM (≈ 6.1 µg/mL) | 2.57 µM (≈ 6.25 µg/mL) |  |  |  | CCCCCCCCCC(=O)N[C@@H](CCCNC(=N)N)C(=O)NCC(=O)N[C@@H](CCCNC(=N)N)C(=O)N[C@@H](CCCCN)C(=O)NCC(=O)NCC(=O)N[C@@H](CCCNC(=N)N)C(=O)N[C@@H](CCCNC(=N)N)C(=O)NCCCC[C@H](NC(=O)[C@H](CCCNC(=N)N)NC(=O)[C@H](CCCNC(=N)N)NC(=O)CNC(=O)CNC(=O)[C@H](CCCCN)NC(=O)[C@H](CCCNC(=N)N)NC(=O)CNC(=O)[C@H](CCCNC(=N)N)NC(=O)CCCCCCCCC)C(=O)N[C@@H](CCCCN)C(=O)O [Peptide C10-G2D, (C9H19—CO—NH—RGRKGGRR)2KK] (I: Decanoyl-RGRKGGRRKK-OH / II: Decanoyl-RGRKGGRR; amide I:9-II:C; N-terminus and C-terminus assumed) |
| 4.71 µM (≈ 12.5 µg/mL) | 4.71 µM (≈ 12.5 µg/mL) | 4.71 µM (≈ 12.5 µg/mL) | 4.71 µM (≈ 12.5 µg/mL) | 4.71 µM (≈ 12.5 µg/mL) | 542.8 ± 53.0 µg/mL |  | CCCCCCCCCCCC(=O)N[C@@H](CCCNC(=N)N)C(=O)NCC(=O)N[C@@H](CCCNC(=N)N)C(=O)N[C@@H](CCCCN)C(=O)N[C@H](C(=O)N[C@H](C(=O)N[C@@H](CCCNC(=N)N)C(=O)N[C@@H](CCCNC(=N)N)C(=O)NCCCC[C@H](NC(=O)[C@H](CCCNC(=N)N)NC(=O)[C@H](CCCNC(=N)N)NC(=O)[C@@H](NC(=O)[C@@H](NC(=O)[C@H](CCCCN)NC(=O)[C@H](CCCNC(=N)N)NC(=O)CNC(=O)[C@H](CCCNC(=N)N)NC(=O)CCCCCCCCCCC)C(C)C)C(C)C)C(=O)N[C@@H](CCCCN)C(=O)O)C(C)C)C(C)C [Peptide C12-V2D, (C11H23—CO—NH—RGRKVVRR)2KK] (I: Lauroyl-RGRKVVRRKK-OH / II: Lauroyl-RGRKVVRR; amide I:9-II:C) |
| 1.26 µM (≈ 3.13 µg/mL) | 5.03 µM (≈ 12.5 µg/mL) | 2.51 µM (≈ 6.24 µg/mL) | 5.03 µM (≈ 12.5 µg/mL) | 2.51 µM (≈ 6.24 µg/mL) |  | >2000 µg/mL | CCCCCC(=O)N[C@@H](CCCNC(=N)N)C(=O)NCC(=O)N[C@@H](CCCNC(=N)N)C(=O)N[C@@H](CCCCN)C(=O)N[C@H](C(=O)N[C@H](C(=O)N[C@@H](CCCNC(=N)N)C(=O)N[C@@H](CCCNC(=N)N)C(=O)NCCCC[C@H](NC(=O)[C@H](CCCNC(=N)N)NC(=O)[C@H](CCCNC(=N)N)NC(=O)[C@@H](NC(=O)[C@@H](NC(=O)[C@H](CCCCN)NC(=O)[C@H](CCCNC(=N)N)NC(=O)CNC(=O)[C@H](CCCNC(=N)N)NC(=O)CCCCC)C(C)C)C(C)C)C(=O)N[C@@H](CCCCN)C(=O)O)C(C)C)C(C)C [Peptide C6-V2D, (C5H11—CO—NH—RGRKVVRR)2KK] (I: Hexanoyl-RGRKVVRRKK-OH / II: Hexanoyl-RGRKVVRR; amide I:9-II:C) |
| 40.21 µM (≈ 100 µg/mL) | >40.21 µM | >40.21 µM | 40.21 µM (≈ 100 µg/mL) |  |  |  | CCCCCCCCCCCC(=O)N[C@@H](CCCNC(=N)N)C(=O)NCC(=O)N[C@@H](CCCNC(=N)N)C(=O)N[C@@H](CCCCN)C(=O)NCC(=O)NCC(=O)N[C@@H](CCCNC(=N)N)C(=O)N[C@@H](CCCNC(=N)N)C(=O)NCCCC[C@H](NC(=O)[C@H](CCCNC(=N)N)NC(=O)[C@H](CCCNC(=N)N)NC(=O)CNC(=O)CNC(=O)[C@H](CCCCN)NC(=O)[C@H](CCCNC(=N)N)NC(=O)CNC(=O)[C@H](CCCNC(=N)N)NC(=O)CCCCCCCCCCC)C(=O)N[C@@H](CCCCN)C(=O)O [Peptide C12-G2D, (C11H23—CO—NH—RGRKGGRR)2KK] (I: Lauroyl-RGRKGGRRKK-OH / II: Lauroyl-RGRKGGRR; amide I:9-II:C; N-terminus and C-terminus assumed) |
| 2.63 µM (≈ 6.25 µg/mL) | 2.63 µM (≈ 6.25 µg/mL) | 2.57 µM (≈ 6.1 µg/mL) | 2.63 µM (≈ 6.25 µg/mL) |  |  |  | CCCCCCCC(=O)N[C@@H](CCCNC(=N)N)C(=O)NCC(=O)N[C@@H](CCCNC(=N)N)C(=O)N[C@@H](CCCCN)C(=O)NCC(=O)NCC(=O)N[C@@H](CCCNC(=N)N)C(=O)N[C@@H](CCCNC(=N)N)C(=O)NCCCC[C@H](NC(=O)[C@H](CCCNC(=N)N)NC(=O)[C@H](CCCNC(=N)N)NC(=O)CNC(=O)CNC(=O)[C@H](CCCCN)NC(=O)[C@H](CCCNC(=N)N)NC(=O)CNC(=O)[C@H](CCCNC(=N)N)NC(=O)CCCCCCC)C(=O)N[C@@H](CCCCN)C(=O)O [Peptide C8-G2D, (C7H15—CO—NH—RGRKGGRR)2KK] (I: Octanoyl-RGRKGGRRKK-OH / II: Octanoyl-RGRKGGRR; amide I:9-II:C; N-terminus and C-terminus assumed) |
